Assay [1] deals with sAPPβ levels in H4 human neuroglioma cells over-expressing the wild-type human APP695. Kind of assay: Whole Cell Assay (In Vitro sAPPb Assay). The class given is cell-based. To be noted: 18 hours treatment, geometric mean of 2-3 determinations (4-7 where marked d). As for the experimental part: Whole Cell Assay (In Vitro sAPPb Assay):
H4 human neuroglioma cells over-expressing the wild-type human APP695 are treated for 18 hours with compound in cell growth media having a final concentration 1% DMSO. sAPPβ levels are measured using either TMB-ELISA or Pierce SuperSignal ELISA Pico Chemiluminescent Substrate (Pierce 37069) with capture APP N-terminal antibody (Affinity BioReagents, OMA1-03132), wild-type sAPPβ specific reporter p192 (Elan), and tertiary anti rabbit-HRP (GE Healthcare).

Assay [2] deals with BACE1 enzyme (Homo sapiens (Human), UniProt P56817). Kind of assay: BACE1 Cell-Free Assay (fluorescence polarization). It counts as biochemical. To be noted: geometric mean of 2-3 determinations; pH 4.5, 3 hours at 37° C. The text has this:
This assay measures the inhibition of the beta-secretase enzyme as it cleaves a non-native peptide.
A synthetic APP substrate that can be cleaved by beta-secretase having N-terminal biotin and made fluorescent by the covalent attachment of Oregon Green at the Cys residue is used to assay beta-secretase activity in the presence or absence of the inhibitory compounds. […] The BACE1 enzyme is affinity purified material from conditioned media of CHO-K1 cells that have been transfected with a soluble BACE construct (BACE1deltaTM96His). Compounds are incubated in a ½ log dose response curve from a top concentration of 100 μM with BACE1 enzyme and the biotinylated fluorescent peptide in 384-well black plates (Thermo Scientific #4318). BACE1 is at a final concentration of 0.1 nM with a final concentration of peptide substrate of 150 nM in a reaction volume of 30 μL assay buffer (100 mM sodium acetate, pH 4.5 (brought to pH with acetic acid), and 0.001% Tween-20). Plates are covered and incubated for 3 hours at 37° C. The reaction is stopped with the addition of 30 μL of 1.5 μM Streptavidin (Pierce, #21125). After a 10 minute incubation at room temperature, plates are read on a PerkinElmer EnVision for fluorescence polarization (Ex485 nm/Em530 nm). The activity of the beta-secretase enzyme is detected by changes in the fluorescence polarization that occur when the substrate is cleaved by the enzyme.
A general note: Polarisation of emitted light reports the rotation of a fluorescent probe.

For assay [3], the target named is BACE2 enzyme (Homo sapiens (Human), UniProt Q9Y5Z0). The assay is described as follows: BACE2 Cell-free Assay (fluorescence polarization). It counts as biochemical. To be noted: pH 4.5, 3 hours at 37° C.; number of determinations per footnote a, b, d. The method, then:
This assay measures the inhibition of the BACE2 enzyme as it cleaves a non-native peptide. A synthetic substrate that can be cleaved by BACE2 having N-terminal biotin and made fluorescent by the covalent attachment of Oregon Green at the Cys residue is used to assay BACE2 activity in the presence or absence of the inhibitory compounds. The substrate is Biotin-[…]-C(Oregon green)-KK-OH. The BACE2 enzyme is available from Enzo Life Sciences (Cat # BML-SE550). Compounds are incubated in a ½ log dose response curve from a top concentration of 100 μM with BACE2 enzyme and the biotinylated fluorescent peptide in 384-well black plates (Thermo Scientific #4318). BACE2 is at a final concentration of 2.5 nM with a final concentration of peptide substrate of 150 nM in a reaction volume of 30 μL assay buffer (100 mM sodium acetate, pH 4.5 (brought to pH with acetic acid), and 0.001% Tween-20). Plates are covered and incubated for 3 hours at 37° C. The reaction is stopped with the addition of 30 μL of 1.5 μM Streptavidin (Pierce, #21125). After a 10 minute incubation at room temperature, plates are read on a Perkin Elmer EnVision for fluorescence polarization (Ex485 nm/Em530 nm). The activity of the beta-secretase enzyme is detected by changes in the fluorescence polarization that occur when the substrate is cleaved by the enzyme.

Among the data in patent publication US9045498B2, “Hexahydropyrano[3,4-d][1,3]thiazin-2-amine compounds” (Pfizer Inc., priority 2012, dated 2015) are IC50 values, retold here.

In general, IC50 refers to the point on the concentration scale where inhibition reaches its midpoint.

BACE1 enzyme, sequence (P56817 46-457): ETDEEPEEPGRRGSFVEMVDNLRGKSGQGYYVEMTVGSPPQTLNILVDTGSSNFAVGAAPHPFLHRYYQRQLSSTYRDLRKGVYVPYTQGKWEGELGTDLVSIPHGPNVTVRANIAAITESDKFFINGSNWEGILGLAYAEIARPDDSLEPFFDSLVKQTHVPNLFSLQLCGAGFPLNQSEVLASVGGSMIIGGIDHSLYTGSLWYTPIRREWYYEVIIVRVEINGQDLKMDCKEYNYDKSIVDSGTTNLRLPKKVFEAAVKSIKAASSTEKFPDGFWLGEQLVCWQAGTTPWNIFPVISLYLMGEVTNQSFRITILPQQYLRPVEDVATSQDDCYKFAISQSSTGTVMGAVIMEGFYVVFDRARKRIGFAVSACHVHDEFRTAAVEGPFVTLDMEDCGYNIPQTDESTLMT
BACE2 enzyme, sequence (Q9Y5Z0 63-518): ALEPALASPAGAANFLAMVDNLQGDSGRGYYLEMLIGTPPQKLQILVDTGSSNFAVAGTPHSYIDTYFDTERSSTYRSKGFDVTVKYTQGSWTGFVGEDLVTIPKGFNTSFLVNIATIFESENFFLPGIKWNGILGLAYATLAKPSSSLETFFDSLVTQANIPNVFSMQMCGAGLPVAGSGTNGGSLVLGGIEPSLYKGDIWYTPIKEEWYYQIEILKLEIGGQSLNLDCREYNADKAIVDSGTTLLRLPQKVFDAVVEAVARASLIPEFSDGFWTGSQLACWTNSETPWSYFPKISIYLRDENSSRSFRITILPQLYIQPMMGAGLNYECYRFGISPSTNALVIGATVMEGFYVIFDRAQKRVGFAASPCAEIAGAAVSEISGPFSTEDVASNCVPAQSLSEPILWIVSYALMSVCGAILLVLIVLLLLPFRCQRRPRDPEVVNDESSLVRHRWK

For the compound `Cc1cc([C@H]2C[C@H]3[C@@H](C)SC(N)=N[C@@]3(c3cc(C#N)ccc3F)CO2)on1` [Example 17, 3-[(4R,4aR,6R,8aS)-2-Amino-4-methyl-6-(3-methyl-1,2-oxazol-5-yl)-4,4a,5,6-tetrahydropyrano[3,4-d][1,3]thiazin-8a(8H)-yl]-4-fluorobenzonitrile], the IC50 in assay [1] came out at 11.4 nM; in assay [2] it was 82 nM.
The like results for `C[C@H]1C[C@H]2CSC(N)=N[C@@]2(c2cccc(C#N)c2)CO1` [Example 7, 3-[(4aR,6S,8aS)-2-Amino-6-methyl-4,4a,5,6-tetrahydropyrano[3,4-d][1,3]thiazin-8a(8H)-yl]benzonitrile] were, in that order, 119 nM and 1780 nM.
The like results for `C[C@H]1C[C@H]2CSC(N)=N[C@@]2(c2cc(C#N)ccc2Cl)CO1` [Example 6, 3-[(4aR,6S,8aS)-2-Amino-6-methyl-4,4a,5,6-tetrahydropyrano[3,4-d][1,3]thiazin-8a(8H)-yl]-4-chlorobenzonitrile] were, in that order, 195 nM and 2330 nM.
The like results for `C[C@H]1C[C@H]2[C@@H](CF)SC(N)=N[C@@]2(c2cc(CNCC(F)(F)F)c(F)cc2F)CO1` [Example 20, (4S,4aR,6S,8aS)-8a-(2,4-Difluoro-5-{[(2,2,2-trifluoroethyl)amino]methyl}phenyl)-4-(fluoromethyl)-6-methyl-4,4a,5,6,8,8a-hexahydropyrano[3,4-d][1,3]thiazin-2-amine] were, in that order, 35.7 nM and 68 nM.
Consider `N#Cc1cc([C@]23CO[C@@H](CO)C[C@H]2CSC(N)=N3)c(F)cc1F` [Example 3, 5-[(4aR,6R,8aS)-2-Amino-6-(hydroxymethyl)-4,4a,5,6-tetrahydropyrano[3,4-d][1,3]thiazin-8a(8H)-yl]-2,4-difluorobenzonitrile], for which the concentration for half-maximal inhibition (IC50) in assay [1] worked out at 393 nM; in assay [2] it was 5550 nM.
Turning to `COc1cc(F)c([C@]23CO[C@@H](COCc4ccccc4)C[C@H]2CSC(N)=N3)cc1C#N` [Example 1, 5-[(4aR,6R,8aS)-2-Amino-6-[(benzyloxy)methyl]-4,4a,5,6-tetrahydropyrano[3,4-d][1,3]thiazin-8a(8H)-yl]-4-fluoro-2-methoxybenzonitrile], the figures for the IC50 in assay [1] and in assay [2] were 53.5 nM and 1220 nM, respectively.
The like results for `C[C@H]1C[C@H]2CSC(N)=N[C@@]2(c2cc(CNCC(F)(F)F)c(F)cc2F)CO1` [Example 9, (4aR,6S,8aS)-8a-(2,4-Difluoro-5-{[(2,2,2-trifluoroethyl)amino]methyl}phenyl)-6-methyl-4,4a,5,6,8,8a-hexahydropyrano[3,4-d][1,3]thiazin-2-amine] were, in that order, 8.94 nM and 76 nM.
The like results for `N#Cc1ccc(F)c([C@]23CO[C@@H](C4CC4)C[C@H]2CSC(N)=N3)c1` [Example 13, 3-[(4aR,6R,8aS)-2-Amino-6-cyclopropyl-4,4a,5,6-tetrahydropyrano[3,4-d][1,3]thiazin-8a(8H)-yl]-4-fluorobenzonitrile] were, in that order, 47.6 nM and 342 nM.
With `C[C@H]1C[C@H]2[C@@H](CF)SC(N)=N[C@@]2(c2cc(CNCC(F)(F)F)ccc2F)CO1` [Example 19, (4S,4aR,6S,8aS)-4-(Fluoromethyl)-8a-(2-fluoro-5-{[(2,2,2-trifluoroethyl)amino]methyl}phenyl)-6-methyl-4,4a,5,6,8,8a-hexahydropyrano[3,4-d][1,3]thiazin-2-amine], the IC50 worked out at 30.4 nM in assay [1] and 150 nM in assay [2].
The like results for `N#Cc1cc([C@]23CO[C@@H](COCc4ccccc4)C[C@H]2CSC(N)=N3)c(F)cc1F` [Example 2, 5-[(4aR,6R,8aS)-2-Amino-6-[(benzyloxy)methyl]-4,4a,5,6-tetrahydropyrano[3,4-d][1,3]thiazin-8a(8H)-yl]-2,4-difluorobenzonitrile] were, in that order, 74 nM and 445 nM.
Compound `COC[C@H]1C[C@H]2CSC(N)=N[C@@]2(c2cc(C#N)c(F)cc2F)CO1` [Example 5, 5-[(4aR,6R,8aS)-2-Amino-6-(methoxymethyl)-4,4a,5,6-tetrahydropyrano[3,4-d][1,3]thiazin-8a(8H)-yl]-2,4-difluorobenzonitrile] registered an IC50 in assay [1] of 46.5 nM.
Take `NC1=N[C@@]2(c3cc(CNCC(F)(F)F)ccc3F)CO[C@@H](CF)C[C@H]2CS1` [Example 15, (4aR,6R,8aS)-6-(Fluoromethyl)-8a-(2-fluoro-5-{[(2,2,2-trifluoroethyl)amino]methyl}phenyl)-4,4a,5,6,8,8a-hexahydropyrano[3,4-d][1,3]thiazin-2-amine]: the IC50 in assay [1] turned out to be 8.05 nM; in assay [3], 423 nM; in assay [2] it was 376 nM.
The like results for `COC[C@@H](C)NCc1ccc(F)c([C@]23CO[C@@H](c4cnn(C)c4)C[C@H]2CSC(N)=N3)c1` (relative stereo) [Example 18, (4aR*,6R*,8aS*)-8a-[2-Fluoro-5-({[(2R)-1-methoxypropan-2-yl]amino}methyl)phenyl]-6-(1-methyl-1H-pyrazol-4-yl)-4,4a,5,6,8,8a-hexahydropyrano[3,4-d][1,3]thiazin-2-amine] were, in that order, 0.545 nM, 20 nM and 36 nM.
As to `C[C@H]1C[C@H]2CSC(N)=N[C@@]2(c2cc(C#N)ccc2F)CO1` [Example 14, 3-[(4aR,6S,8aS)-2-Amino-6-methyl-4,4a,5,6-tetrahydropyrano[3,4-d][1,3]thiazin-8a(8H)-yl]-4-fluorobenzonitrile], the IC50 in assay [1] turned out to be 49.6 nM; in assay [2] it was 967 nM.
Take `N#Cc1cc([C@]23CO[C@@H](CF)C[C@H]2CSC(N)=N3)c(F)cc1F` [Example 4, 5-[(4aR,6R,8aS)-2-Amino-6-(fluoromethyl)-4,4a,5,6-tetrahydropyrano[3,4-d][1,3]thiazin-8a(8H)-yl]-2,4-difluorobenzonitrile]: the IC50 was determined as 93 nM in assay [1] and 2520 nM in assay [3].
As for `Cn1cc([C@H]2C[C@H]3CSC(N)=N[C@@]3(c3cc(C#N)ccc3F)CO2)cn1` [Example 12, 3-[(4aR,6R,8aS)-2-Amino-6-(1-methyl-1H-pyrazol-4-yl)-4,4a,5,6-tetrahydropyrano[3,4-d][1,3]thiazin-8a(8H)-yl]-4-fluorobenzonitrile], the IC50 in assay [1] was 6.43 nM; in assay [2] it was 60 nM.
As for `NC1=N[C@@]2(c3cc(CNCC(F)(F)F)c(F)cc3F)CO[C@@H](CF)C[C@H]2CS1` [Example 8, (4aR,6R,8aS)-8a-(2,4-Difluoro-5-{[(2,2,2-trifluoroethyl)amino]methyl}phenyl)-6-(fluoromethyl)-4,4a,5,6,8,8a-hexahydropyrano[3,4-d][1,3]thiazin-2-amine], the midpoint of inhibition in assay [1], the IC50, lay at 5.9 nM.
Turning to `Cc1coc([C@H]2C[C@H]3CSC(N)=N[C@@]3(c3cc(C#N)ccc3F)CO2)n1` [Example 11, 3-[(4aR,6R,8aS)-2-Amino-6-(4-methyl-1,3-oxazol-2-yl)-4,4a,5,6-tetrahydropyrano[3,4-d][1,3]thiazin-8a(8H)-yl]-4-fluorobenzonitrile], the results for the IC50 in assay [1] and in assay [2] were 12.1 nM and 107 nM, respectively.
The like results for `Cc1cc([C@H]2C[C@H]3CSC(N)=N[C@@]3(c3cc(C#N)ccc3F)CO2)on1` [Example 10, 3-[(4aR,6R,8aS)-2-Amino-6-(3-methyl-1,2-oxazol-5-yl)-4,4a,5,6-tetrahydropyrano[3,4-d][1,3]thiazin-8a(8H)-yl]-4-fluorobenzonitrile] were, in that order, 10.9 nM and 64 nM.
